Results: ChEMBL document CHEMBL1128103, “Thromboxane modulating agents. 1. Design of 1-[(arylsulfonyl)amino] alkylindole derivatives as dual thromboxane synthase inhibitor/thromboxane receptor antagonists” (Bioorg Med Chem Lett, 1995)
pIC50: −log10 of the molar value.

Experiments:
Thromboxane A2 receptor [1] = biological target: T1, Thromboxane A2 receptor (Rattus norvegicus, UniProt P34978); assay: Compound was tested in vitro for Thromboxane A2 receptor antagonism by inhibiting contraction of rat aorta induced by the stable thromboxane agonist U-46,619; […]; type: functional, tissue-based; settings: read-out: pA2 (converted)
T1 sequence (P34978 whole entry): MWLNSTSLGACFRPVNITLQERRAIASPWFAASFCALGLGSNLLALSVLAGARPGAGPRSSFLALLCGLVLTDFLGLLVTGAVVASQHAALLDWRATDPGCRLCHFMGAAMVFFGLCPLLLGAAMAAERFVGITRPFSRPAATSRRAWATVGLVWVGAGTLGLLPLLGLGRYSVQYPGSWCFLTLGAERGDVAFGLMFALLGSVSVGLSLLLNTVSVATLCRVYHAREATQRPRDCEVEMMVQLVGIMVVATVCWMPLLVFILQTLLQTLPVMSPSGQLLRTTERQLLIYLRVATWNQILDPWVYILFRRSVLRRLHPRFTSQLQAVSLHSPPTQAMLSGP

Thromboxane-A synthase = biological target: T2, Thromboxane-A synthase (Homo sapiens, UniProt P24557); assay: Compound was tested for the ability to inhibit human platelets microsomal Thromboxane A2 synthase
T2 sequence (P24557 whole entry): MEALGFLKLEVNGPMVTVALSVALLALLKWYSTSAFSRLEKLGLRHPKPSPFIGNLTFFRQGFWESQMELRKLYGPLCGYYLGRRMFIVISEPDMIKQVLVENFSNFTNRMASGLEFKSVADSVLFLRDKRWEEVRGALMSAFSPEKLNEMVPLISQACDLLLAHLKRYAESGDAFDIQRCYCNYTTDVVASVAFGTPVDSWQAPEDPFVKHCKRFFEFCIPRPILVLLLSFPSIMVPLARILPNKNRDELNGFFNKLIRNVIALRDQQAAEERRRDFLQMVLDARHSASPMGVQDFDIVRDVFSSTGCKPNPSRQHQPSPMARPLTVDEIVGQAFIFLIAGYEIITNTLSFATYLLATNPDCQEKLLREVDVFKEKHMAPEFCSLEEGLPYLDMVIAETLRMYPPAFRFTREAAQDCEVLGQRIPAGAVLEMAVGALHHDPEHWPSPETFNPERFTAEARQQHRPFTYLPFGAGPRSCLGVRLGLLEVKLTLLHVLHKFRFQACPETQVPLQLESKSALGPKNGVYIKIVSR

Thromboxane A2 receptor [2] = biological target: T1, Thromboxane A2 receptor; assay: Compound was tested in vitro for Thromboxane A2 receptor antagonism by inhibiting contraction of rat aorta induced by the stable thromboxane agonist U-46,619; type: functional, tissue-based; settings: read-out: pA2 (converted)
Thromboxane A2 receptor [3] = biological target: T1, Thromboxane A2 receptor; assay: Compound was tested in vitro for thromboxane A2 receptor antagonism by inhibiting contraction of rat aorta induced by the stable thromboxane agonist U-46,619; type: functional, tissue-based; settings: read-out: pA2 (converted)
[4] = biological target: T3, Thromboxane-A synthase (Homo sapiens) (UniProt P24557); assay: Compound was tested for the ability to inhibit human platelets microsomal Thromboxane A2 synthase at 1 uM concentration
T3 sequence (whole entry): T2 sequence (P24557 whole entry)

Structure (SMILES)	Kb (Thromboxane A2 receptor [1]) [nM]	pIC50 (Thromboxane-A synthase)	Kb (Thromboxane A2 receptor [2]) [nM]	Kb (Thromboxane A2 receptor [3]) [nM]	inhibition [4] [%]
Cc1c(Cn2ccnc2)n(CCCNS(=O)(=O)c2ccc(F)cc2)c2ccc(C(=O)O)cc12	> 1000	7.82			
Cc1c(Cc2cccnc2)c2cc(CCC(=O)O)ccc2n1CCNS(=O)(=O)c1ccc(F)cc1		7.21	0.692		
Cc1c(C)n(CCNS(=O)(=O)c2ccc(F)cc2)c2ccc(CCC(=O)O)cc12			2.51		
Cc1c(Cc2ccncc2)c2cc(CCC(=O)O)ccc2n1CCNS(=O)(=O)c1ccc(F)cc1		7.11	0.0741		
Cc1c(Cn2ccnc2)n(CCNS(=O)(=O)c2ccc(F)cc2)c2ccc(C(=O)O)cc12	> 1000	7.70			
Cc1c(Cn2ccnc2)n(CCNS(=O)(=O)c2ccc(F)cc2)c2ccc(CCC(=O)O)cc12		6.87	138		
O=C(O)COc1ccc(CCNS(=O)(=O)c2ccccc2)cc1 [SULOTROBAN]			81.3		
Cc1[nH]c2ccc(CCC(=O)O)cc2c1Cc1ccncc1		7.66		60.3	
O=C(O)CCc1ccc2c(c1)c(Cc1ccncc1)cn2CCNS(=O)(=O)c1ccc(F)cc1				7.59	42
Cc1c(Cn2ccnc2)c2cc(CCC(=O)O)ccc2n1CCNS(=O)(=O)c1ccc(F)cc1		7.41	1.58		
Cc1c(Cn2ccnc2)n(CCCCNS(=O)(=O)c2ccc(F)cc2)c2ccc(C(=O)O)cc12	> 1000	7.41			
